Active and inactive are the calls of the source. No cut-off for these calls is given here.
What was measured:
Alpha glucosidase [1] = target: T1, Alpha glucosidase (Homo sapiens, UniProt O43451+P10253+P14410+Q2M2H8); assay: Inhibition of alpha-glucosidase (unknown origin) at > 100 uM using p-nitrophenyl alpha-D-glucoside as substrate preincubated for 0.5 hrs followed substrate addition and measured after 1 hr by colorimetric method; type: protein assay
RAW264.7 [2] = assay: Inhibition of NO production in LPS-stimulated mouse RAW264.7 cells incubated for 24 hrs by Griess reagent-based assay; type: functional, cell-based; conditions: RAW264.7, 24 h
Alpha glucosidase [3] = target: T1, Alpha glucosidase; assay: Inhibition of alpha-glucosidase (unknown origin) using p-nitrophenyl alpha-D-glucoside as substrate preincubated for 0.5 hrs followed substrate addition and measured after 1 hr by colorimetric method; type: protein assay
RAW264.7 [4] = assay: Inhibition of NO production in LPS-stimulated mouse RAW264.7 cells at > 100 uM incubated for 24 hrs by Griess reagent-based assay; type: functional, cell-based

Row | inhibition (Alpha glucosidase [1]) | IC50 (RAW264.7 [2]) | IC50 (Alpha glucosidase [3]) | Structure (SMILES) | inhibition (RAW264.7 [4])
1 | inactive | 11 µM |  | CC(C)=CC[C@@H]1C[C@@]23CCC(C)(C)OC2=C(C(=O)c2ccccc2)C(=O)[C@H](C3=O)[C@@]1(C)CCCC(C)(C)O | 
2 |  |  | 37.4 µM | COc1c(O)cc2oc3cc(O)c(CC=C(C)C)c(O)c3c(=O)c2c1C/C=C(\C)CCC=C(C)C [COWANIN] | inactive
3 | inactive | 5.4 µM |  | COc1c(O)cc2oc3cc(O)c(CCC(C)(C)O)c(O)c3c(=O)c2c1CC=C(C)C | 
4 |  | 13.4 µM | 28.7 µM | COc1c(O)cc2oc3cc(O)c(C/C=C(\C)CO)c(O)c3c(=O)c2c1C/C=C(\C)CCC=C(C)C | 
5 |  | 5.8 µM | 15.4 µM | CC(C)=CCC/C(C)=C/CC/C(C)=C/CCC(C)(O)CCc1c(O)c(O)cc2oc3cc(O)cc(O)c3c(=O)c12 (racemic) | 
6 | inactive |  |  | CC1(C)CCc2c(cc3oc4c(O)c(O)ccc4c(=O)c3c2O)O1 | inactive
7 | inactive |  |  | CC(C)=CCC/C(C)=C/Cc1c(O)cc2oc3c(O)cccc3c(=O)c2c1O | inactive
8 |  |  | 76.2 µM | CC(C)=CCC/C(C)=C/CC/C(C)=C/Cc1c(O)c(O)cc2oc3cc(O)cc(O)c3c(=O)c12 | inactive
9 |  | 7.7 µM | 25.4 µM | CC(C)=CCC/C(C)=C/CCC(C)(O)CCc1c(O)c(O)cc2oc3cc(O)cc(O)c3c(=O)c12 (racemic) | 
10 | inactive |  |  | CC(C)(O)CCC[C@@]1(C)[C@H](CCC(C)(C)O)C[C@@]23CCC(C)(C)OC2=C(C(=O)c2ccccc2)C(=O)[C@@H]1C3=O | inactive
11 |  |  | 22.6 µM | COc1cc2oc3cc(O)c(OC)c(CC=C(C)C)c3c(=O)c2c(O)c1CC=C(C)C | inactive
12 |  | 18.6 µM | 11.4 µM | COc1c(O)cc2oc3cc4c(c(O)c3c(=O)c2c1CC=C(C)C)C=CC(C)(C)O4 [MANGOSTANIN] | 

Row | Structure (SMILES) | inhibition (Alpha glucosidase [1]) | IC50 (RAW264.7 [2]) | IC50 (Alpha glucosidase [3]) | inhibition (RAW264.7 [4])
13 | N=C(N)NN [PIMAGEDINE] |  | 19.9 µM |  | 
